Measured values published in patent US20250223268A1, “4-Methylsulfonylbenzamide Compound, Preparation Method, Herbicidal Composition And Use” (Jiangsu Flag Chemical Industry Co., Ltd., priority 2022, published 2025).

Columns and labels:
Type in all cases: in vivo
[1] = tested on: Cyperus iria; assay: Greenhouse herbicidal activity assay, post-emergence; conditions: Post-emergence test, rate 150 g a.i./hm^2; grade by fresh weight inhibition rate
Outline: (§1)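 Scores reflect fresh weight inhibition assessed 14-21 days after treatment, with grade A meaning ≥80% to 100% and grade E meaning <20%. Plants, raised in nutrient-soil pots inside a growth chamber, were sprayed on the foliage at the 3-6 leaf stage.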

[2] = tested on: Echinochloa crusgalli; assay: as above; conditions: Post-emergence test, rate 150 g a.i./hm^2; grade by fresh weight inhibition rate
Outline: as §1

[3] = tested on: Eclipta prostrata; assay: as above; conditions: Post-emergence test, rate 150 g a.i./hm^2; grade by fresh weight inhibition rate
Outline: as §1

[4] = tested on: Leptochloa chinensis; assay: as above; conditions: Post-emergence test, rate 150 g a.i./hm^2; grade by fresh weight inhibition rate
Outline: as §1

[5] = tested on: Digitaria sanguinalis; assay: as above; conditions: Post-emergence test, rate 150 g a.i./hm^2; grade by fresh weight inhibition rate
Outline: as §1

[6] = tested on: Oryza sativa subsp. indica; assay: Greenhouse herbicidal activity and crop safety comparison (Test Example 2); conditions: Rate 150 g/ha
Outline: (§2)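 Fresh weight inhibition, banded into grades A to E (E <20%), was rated 14-21 days after foliar spraying of 3-6 leaf plants, or 14-30 days after a soil spray applied 24 h post-sowing.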

[7] = tested on: Oryza sativa subsp. japonica; assay: as above; conditions: Rate 150 g/ha
Outline: as §2

[8] = tested on: Echinochloa crusgalli; assay: as above; conditions: Rate 150 g/ha
Outline: as §2

[9] = tested on: Leptochloa chinensis; assay: as above; conditions: Rate 150 g/ha
Outline: as §2

SMILES | Control efficacy grade, Cyperus iria [1] | Control efficacy grade, Echinochloa crusgalli [2] | Control efficacy grade, Eclipta prostrata [3] | Control efficacy grade, Leptochloa chinensis [4] | Control efficacy grade, Digitaria sanguinalis [5] | Oryza sativa subsp. indica, grading of fresh weight inhibition rate (crop safety) [6] | Oryza sativa subsp. japonica, grading of fresh weight inhibition rate (crop safety) [7] | Echinochloa crusgalli, control efficacy grading (fresh weight inhibition rate) [8] | Leptochloa chinensis, control efficacy grading (fresh weight inhibition rate) [9]
CS(=O)(=O)c1ccc(C(=O)Nc2nnco2)c(Cl)c1S(=O)(=O)CC1CC1 [Compound 3-302] | A (Fresh weight inhibition rate≥80% to 100%) | A (Fresh weight inhibition rate≥80% to 100%) | A (Fresh weight inhibition rate≥80% to 100%) | A (Fresh weight inhibition rate≥80% to 100%) | A (Fresh weight inhibition rate≥80% to 100%) | E (Fresh weight inhibition rate<20%) | E (Fresh weight inhibition rate<20%) | A (Fresh weight inhibition rate≥80% to 100%) | A (Fresh weight inhibition rate≥80% to 100%)
CS(=O)(=O)c1ccc(C(=O)Nc2nnco2)c(Cl)c1S(=O)(=O)C1CC1 [Compound 3-307] | A (Fresh weight inhibition rate≥80% to 100%) | A (Fresh weight inhibition rate≥80% to 100%) | A (Fresh weight inhibition rate≥80% to 100%) | A (Fresh weight inhibition rate≥80% to 100%) | A (Fresh weight inhibition rate≥80% to 100%) | E (Fresh weight inhibition rate<20%) | E (Fresh weight inhibition rate<20%) | A (Fresh weight inhibition rate≥80% to 100%) | A (Fresh weight inhibition rate≥80% to 100%)
CS(=O)(=O)c1ccc(C(=O)Nc2nnco2)c(Cl)c1S(=O)(=O)C1CCC1 [Compound 3-312] | A (Fresh weight inhibition rate≥80% to 100%) | A (Fresh weight inhibition rate≥80% to 100%) | A (Fresh weight inhibition rate≥80% to 100%) | A (Fresh weight inhibition rate≥80% to 100%) | A (Fresh weight inhibition rate≥80% to 100%) | E (Fresh weight inhibition rate<20%) | E (Fresh weight inhibition rate<20%) | A (Fresh weight inhibition rate≥80% to 100%) | A (Fresh weight inhibition rate≥80% to 100%)
CS(=O)(=O)c1ccc(C(=O)Nc2nnco2)c(Cl)c1S(=O)(=O)C1CCCC1 [Compound 3-317] | A (Fresh weight inhibition rate≥80% to 100%) | A (Fresh weight inhibition rate≥80% to 100%) | A (Fresh weight inhibition rate≥80% to 100%) | A (Fresh weight inhibition rate≥80% to 100%) | A (Fresh weight inhibition rate≥80% to 100%) | E (Fresh weight inhibition rate<20%) | E (Fresh weight inhibition rate<20%) | A (Fresh weight inhibition rate≥80% to 100%) | A (Fresh weight inhibition rate≥80% to 100%)
CS(=O)(=O)c1ccc(C(=O)Nc2nnco2)c(Cl)c1S(=O)(=O)CC(F)(F)F [Compound 3-327] | A (Fresh weight inhibition rate≥80% to 100%) | A (Fresh weight inhibition rate≥80% to 100%) | A (Fresh weight inhibition rate≥80% to 100%) | A (Fresh weight inhibition rate≥80% to 100%) | B (Fresh weight inhibition rate≥260% to <80%) | E (Fresh weight inhibition rate<20%) | E (Fresh weight inhibition rate<20%) | A (Fresh weight inhibition rate≥80% to 100%) | A (Fresh weight inhibition rate≥80% to 100%)
C=CCS(=O)(=O)c1c(S(C)(=O)=O)ccc(C(=O)Nc2nnco2)c1Cl [Compound 3-342] | A (Fresh weight inhibition rate≥80% to 100%) | A (Fresh weight inhibition rate≥80% to 100%) | A (Fresh weight inhibition rate≥80% to 100%) | A (Fresh weight inhibition rate≥80% to 100%) | A (Fresh weight inhibition rate≥80% to 100%) | E (Fresh weight inhibition rate<20%) | E (Fresh weight inhibition rate<20%) | A (Fresh weight inhibition rate≥80% to 100%) | A (Fresh weight inhibition rate≥80% to 100%)
CCCS(=O)(=O)c1c(S(C)(=O)=O)ccc(C(=O)Nc2nnc(CC)o2)c1Cl [Compound 3-387] | A (Fresh weight inhibition rate≥80% to 100%) | A (Fresh weight inhibition rate≥80% to 100%) | A (Fresh weight inhibition rate≥80% to 100%) | A (Fresh weight inhibition rate≥80% to 100%) | A (Fresh weight inhibition rate≥80% to 100%) | E (Fresh weight inhibition rate<20%) | E (Fresh weight inhibition rate<20%) | A (Fresh weight inhibition rate≥80% to 100%) | A (Fresh weight inhibition rate≥80% to 100%)
